From patent publication EP4741380A1, “ISOXAZOLINE COMPOUND AND USE” (priority 2024, dated 2025)
Like-named read-outs stand apart in the source and are kept apart here.

How the values were obtained:
Borer = experiment: Killing efficacy test against agricultural pests: borer test (leaf dip); type: in vivo; conditions: after 72 h
Protocol: (§1) Solution preparation: 2 mg of a test compound was weighed and dissolved in 200 µL of acetone, and the sample was diluted with an aqueous solution containing 0.1% Tween 80 to a required concentration to obtain a test solution. 1. Diamondback moth test: The test sample was prepared into solutions with final concentrations of 0.0156 mg/L, 0.125 mg/L, and 1 mg/L. Fresh and clean rapeseed leaves were cut into small pieces of 3 cm × 3 cm. The leaf pieces were immersed in the solutions with different concentrations for 10s, taken out, and air-dried naturally. The treated leaf pieces were placed into Petri dishes lined with moistened filter paper. 20 third-instar larvae of the diamondback moth were introduced into each Petri dish. The Petri dishes were placed in a constant-temperature room, and mortality rates were checked after 72 h. 2. Aphid test: The test sample was prepared into solutions with final concentrations of 2 mg/L, 10 mg/L, and 50 mg/L. Fresh cotton leaves of uniform size were immersed in the solutions with different concentrations for 10s, air-dried, and placed backside up on culture plates. 100 wingless adult aphids were introduced into each culture plate. The culture plates were sealed with paper strips and placed in a constant-temperature room. Mortality rates were checked after 72 h. 3. Mite test: The test sample was prepared into solutions with final concentrations of 0.02 mg/L, 0.2 mg/L, and 2 mg/L. Filter paper treated with the test solutions was placed in Petri dishes, and about 30 mites were placed at the center of each Petri dish. 0.05 g of mite feed was added to the center of each Petri dish after 30 min. The Petri dishes were placed in a constant-temperature room, and mortality rates were checked after 72 h. 4. Borer test: The test sample was prepared into solutions with final concentrations of 0.125 mg/L, 0.5 mg/L, and 2 mg/L. Fresh leaves were cut, immersed in the solutions with different concentrations for 10s, taken out, and air-dried. The treated leaves were placed in Petri dishes, and 30 borer larvae were introduced into each Petri dish. The Petri dishes were placed in a constant-temperature room, and mortality rates were checked after 72 h.

mites = experiment: Mite killing efficacy test with an in vitro model
Protocol: Mite collection: Live mites were gently picked up from a cage box with cotton swabs or small tweezers, 17-26 live mites per group.
Drug treatment and detection method: 100 µL of a drug solution with a different concentration (drug solution prepared by 3% DMSO solution + 97% water and having a target final concentration of 30 µM) was aspirated with a pipette and added to a 24-well plate for each group, ensuring full contact between the drug and the mites. The mites were separately incubated at normal temperature for 5 min, transferred from each plate to another dry 24-well plate with the top sealed, and air-dried for about 1 h. Mite actions were observed, and the number of dead mites/the total number of mites was recorded. Then, the 24-well plate containing the mites was cultured at room temperature and relatively high humidity. The number of dead mites/the total number of mites was counted separately after 1 h, 2 h, 4 h, 6 h, 8 h, 22 h, and 24 h (time points after drug addition), and mite mortality rates were calculated. The project ended 24 h after drug addition.
At a corresponding time point, a mite mortality rate greater than or equal to 90% is denoted as "+++", a mite mortality rate less than 90% and greater than or equal to 50% is denoted as "++", and a mite mortality rate less than 50% is denoted as "+".

Mite = experiment: Killing efficacy test against agricultural pests: mite test (treated filter paper); type: in vivo, mites; conditions: after 72 h
Protocol: as §1

Aphid = experiment: Killing efficacy test against agricultural pests: aphid test (leaf dip); type: in vivo, aphids; conditions: after 72 h
Protocol: as §1

Diamondback moth = experiment: Killing efficacy test against agricultural pests: diamondback moth test (leaf dip); type: in vivo; conditions: Plutella xylostella, foliar, read-out: Corrected Mortality Rate (%)
Protocol: as §1

[1] = In vivo pharmacokinetic evaluation in mice; parameters: species or system ICR mice; conditions: for AUC: read-out: AUC^1-24 h; for Vd: in vivo, read-out: Vss
Protocol: 1. Drug preparation: 5% DMSO + 10% macrogol 15 hydroxystearate (BASF) + 85% saline (where drug solutions have a final concentration of 1.2 mg/mL for the IV group and 3 mg/mL for the PO group). 2. Experimental animals: Each group included three mice (ICR mice, SPF grade). 3. Administration method: The body weight was measured before administration, and the dose was calculated according to the body weight. The mice were administered through intravenous injection or oral gavage. 4. Blood collection: After administration, blood samples were collected in 0.083 h, 0.25 h, 0.5 h, 1 h, 2 h, 4 h, 6 h, 8 h, and 24 h. The blood samples were collected via the cheek. Each sample included about 0.05 mL of blood anticoagulated with EDTA-2K. The blood samples were placed on wet ice after collection. 5. Sample treatment: The blood samples were placed on ice after collection and centrifuged within 1 h to obtain plasma (centrifugation conditions: 6000 g, 3 min, 2-8°C). Plasma samples were stored in a -80°C refrigerator before analysis. 6. Data processing: Pharmacokinetic parameters were calculated using Phoenix WinNonlin 8.2.0 based on plasma concentration data at different time points.

[2] = 30 µM drug solution, 4 h after drug addition, read-out: Mite Mortality Rate 4 h
[3] = 30 µM drug solution, 24 h after drug addition, read-out: Mite Mortality Rate 24 h
[4] = DiamondBack Moth, 0.0156 mg/L, after 72 h
[5] = DiamondBack Moth, 0.125 mg/L, after 72 h
[6] = DiamondBack Moth, 1 mg/L, after 72 h
[7] = 4 h, read-out: Mite Mortality Rate 4 h
[8] = 24 h, read-out: Mite Mortality Rate 24 h
[9] = ICR, mouse, IV (6 mg/kg), plasma
[10] = ICR, mouse, IV (6 mg/kg), plasma, read-out: C0
[11] = ICR, mouse, PO (30 mg/kg), plasma
[12] = ICR, mouse, PO (30 mg/kg), plasma, read-out: Cmax
[13] = ICR, mouse, PO (30 mg/kg), plasma, read-out: Tmax
[14] = ICR, mouse, plasma, PO (30 mg/kg) vs IV (6 mg/kg)

SMILES | Corrected Mortality Rate (%) (Borer; 0.125 mg/L) | Corrected Mortality Rate (%) (Borer; 0.5 mg/L) | Corrected Mortality Rate (%) (Borer; 2 mg/L) | mortality at 30 µM (mites; [2]) | mortality at 30 µM (mites; [3]) | Corrected Mortality Rate (%) (Mite; 0.02 mg/L) | Corrected Mortality Rate (%) (Mite; 0.2 mg/L) | Corrected Mortality Rate (%) (Mite; 2 mg/L) | Corrected Mortality Rate (%) (Aphid; 2 mg/L) | Corrected Mortality Rate (%) (Aphid; 10 mg/L) | Corrected Mortality Rate (%) (Aphid; 50 mg/L) | mortality at 0.0156 µg/mL (Diamondback moth; [4]) | mortality at 0.125 µg/mL (Diamondback moth; [5]) | mortality at 1 µg/mL (Diamondback moth; [6]) | mortality at 30 µM (mites; [7]) | mortality at 30 µM (mites; [8]) | clearance [1, 9] | half-life [1, 9] | AUC [1, 9] | C0 [1, 10] | further results
Cc1cc(C2=NOC(c3cc(C(F)(F)F)cc(C(F)(F)F)c3)(C(F)(F)F)C2)ccc1C(=O)NCC(=O)NC1(C(F)(F)F)CC1 (stereo not shown) [Example 030, 4-(5-(3,5-bis(trifluoromethyl)phenyl)-5-(trifluoromethyl)-4,5-dihydroisoxazol-3-yl)-2-methyl-N-(2-oxo-2-((1-(trifluoromethyl)cyclopropyl)amino)ethyl)benzamide] | 30% | 100% | 100% | > 90% | > 90% | 34% | 66% | 96% | 22% | 86% | 100% | 16% | 63% | 100% |  |  |  |  |  |  | 
Cc1cc(C2=NOC(c3cc(Cl)c(Cl)c(C(F)(F)F)c3)(C(F)(F)F)C2)ccc1C(=O)NCC(=O)NC1(C(F)(F)F)CC1 (stereo not shown) [Example 029, 4-(5-(3,4-dichloro-5-(trifluoromethyl)phenyl)-5-(trifluoromethyl)-4,5-dihydroisoxazol-3-yl)-2-m ethyl-N-(2-oxo-2-((1-(trifluoromethyl)cyclopropyl)amino)ethyl)benzamide] | 0% | 50% | 100% | > 90% | > 90% | 54% | 70% | 100% | 5% | 100% | 100% | 0% | 79% | 100% |  |  |  |  |  |  | 
Cc1cc(C2=NOC(c3cc(Cl)cc(Cl)c3)(C(F)(F)F)C2)ccc1C(=O)NCC(=O)NCC(F)(F)F (stereo not shown) [Fluralaner, fluralaner, reference compound] |  |  |  |  |  |  |  |  |  |  |  |  |  |  |  |  |  |  |  |  | Mite Mortality Rate 4 h (mites; 30 µM drug solution, 4 h after drug addition): +++ (a mite mortality rate greater than or equal to 90% is denoted as "+++"); Mite Mortality Rate 24 h (mites; 30 µM drug solution, 24 h after drug addition): +++ (a mite mortality rate greater than or equal to 90% is denoted as "+++"); AUC^1-24 h ([1]; IV (6 mg/kg), plasma): 22972 ng·h/mL; C0 ([1]; IV (6 mg/kg), plasma): 7151 ng/mL; CL ([1]; IV (6 mg/kg), plasma): 3.49 mL/min/kg; T1/2 ([1]; IV (6 mg/kg), plasma): 11.9 h; Vss ([1]; IV (6 mg/kg), plasma): 2.87 L/kg; F (%) ([1]; PO (30 mg/kg) vs IV (6 mg/kg)): 81.42%; AUC^1-24 h ([1]; PO (30 mg/kg), plasma): 93520 ng·h/mL; Cmax ([1]; PO (30 mg/kg), plasma): 8000 ng/mL; T1/2 ([1]; PO (30 mg/kg), plasma): 15.2 h; Tmax ([1]; PO (30 mg/kg), plasma): 1.67 h
Cc1cc(C2=NO[C@@](c3cc(Cl)cc(C(F)(F)F)c3)(C(F)(F)F)C2)ccc1C(=O)NCC(=O)NC1(C(F)(F)F)CC1 [Example 008, (S)-4-(5-(3-chloro-5-(trifluoromethyl)phenyl)-5-(trifluoromethyl)-4,5-dihydroisoxazol-3-yl)-2-m ethyl-N-(2-oxo-2-((1-(trifluoromethyl)cyclopropyl)amino)ethyl)benzamide] | 2% | 82% | 100% |  |  | 62% | 92% | 100% | 86% | 100% | 100% |  |  |  | > 90% | > 90% | 0.713 mL/min/kg | 37.6 h | 56100 ng·h/mL | 10300 ng/mL | half-life [1, 11]: 31.6 h; AUC [1, 11]: 233000 ng·h/mL; Cmax [1, 12]: 15300 ng/mL; Tmax [1, 13]: 9.33 h; Vd [1, 9]: 1.93 L/kg; bioavailability [1, 14]: 83.1%; mortality at 0.0156 µg/mL (Diamondback moth; 72 h): 5%; mortality at 0.125 µg/mL (Diamondback moth; 72 h): 100%; mortality at 1 µg/mL (Diamondback moth; 72 h): 100%
Cc1cc(C2=NO[C@@](c3cc(Cl)cc(Cl)c3)(C(F)(F)F)C2)ccc1C(=O)NCC(=O)NC1(C(F)(F)F)CC1 [Example 011, (S)-4-(5-(3,5-dichlorophenyl)-5-(trifluoromethyl)-4,5-dihydroisoxazol-3-yl)-2-methyl-N-(2-oxo-2-((1-(trifluoromethyl)cyclopropyl)amino)ethyl)benzamide] | 29% | 93% | 100% |  |  | 34% | 86% | 100% | 60% | 100% | 100% |  |  |  | > 90% | > 90% | 1.18 mL/min/kg | 20 h | 48900 ng·h/mL | 6800 ng/mL | half-life [1, 11]: 27.8 h; AUC [1, 11]: 231000 ng·h/mL; Cmax [1, 12]: 15900 ng/mL; Tmax [1, 13]: 2.67 h; Vd [1, 9]: 1.96 L/kg; bioavailability [1, 14]: 94.6%; mortality at 0.0156 µg/mL (Diamondback moth; 72 h): 0%; mortality at 0.125 µg/mL (Diamondback moth; 72 h): 100%; mortality at 1 µg/mL (Diamondback moth; 72 h): 100%
